Columns and labels:
[1] = test system: rat hepatocytes; assay: Metabolic stability in rat hepatocytes; type: in vitro ADME
Procedure: (§1) To evaluate the metabolic stability of DWP16001 in human, dog, monkey, mouse, and rat hepatocytes, pooled cryopreserved hepatocytes were carefully thawed in recovery medium and resuspended in incubation medium (Krebs–Henseleit buffer for mouse, rat, and human; William’s E media for dog and monkey) to 0.5 × 10^6 cells/mL for mouse, 0.67 × 10^6 cells/mL for rat, and 1.0 × 10^6 cells/mL for dog, monkey, and human in accordance with the manufacturer’s protocols. Then, 60-μL aliquots of these hepatocyte suspensions and an equal volume of 2 μM DWP16001 in incubation medium were mixed in 96-well plates and incubated in triplicate for 0, 30, 60, 90, 120, 180, or 240 min in a CO2 incubator at 37 °C. Reactions were stopped by addition of 120 µL of ice-cold acetonitrile to each well and the cell suspension was sonicated for 5 min at 4 °C, followed by centrifugation at 15,000× g for 10 min at 4 °C after 5 min of sonication. 80-µL aliquots of the supernatants were then vortex-mixed with 20 μL of ice-cold ketoconazole (an internal standard) in acetonitrile and analyzed by LC–tandem mass spectrometry (LC-MS/MS). The peak area ratios of DWP16001 versus internal standard at each sampling point were used for the subsequent calculation. Elimination parameters, including half-life (t1/2), intrinsic clearance (Clint), and hepatic clearance (Clhep) of DWP16001 in mouse, rat, dog, monkey, and human were calculated by the following equations [19]. (1) t1/2min=ln2/−k elimination slope (2) ClintmL/min/kg=ln2/t1/2×mL incubation/hepatocytes 10^6 cells×B×10^6 cells/g liver×A g liver/kg BW (3) ClhepmL/min/kg=Qh×Clint/Qh+Clint (4) Hepatic extraction ratio = Clhep/Qh
(§2) Here, A has values of 87.5, 40, 32, 32, and 25.7; B has values of 135, 117, 215, 120, and 139; Qh (representing hepatic blood flow) has values of 90, 55.2, 30.9, 43.4, and 20.7 mL/min/kg, for mouse, rat, dog, monkey, and human, respectively. Hepatic extraction ratio values of ≤ 0.25, 0.25–0.75, and ≥ 0.75 were regarded as low, moderate, and high, respectively.

[2] = Metabolic stability in rat hepatocytes; type: in vitro ADME; settings: pooled cryopreserved hepatocytes
Procedure: as §1, §2

[3] = test system: human hepatocytes; assay: Metabolic stability in human hepatocytes; type: in vitro ADME
Procedure: as §1, §2

[4] = Metabolic stability in human hepatocytes; type: in vitro ADME; settings: pooled cryopreserved hepatocytes
Procedure: as §1, §2

[5] = test system: 13 human UGT enzymes; assay: UGT screening, whole panel; type: in vitro ADME; settings: incubation of DWP16001 with 13 human UGT enzymes, UDPGA
Procedure: To screen for UGT enzymes responsible for glucuronidation of DWP16001, 100 μL of reaction mixtures containing 13 human cDNA-expressed UGT enzymes (1A1, 1A3, 1A4, 1A6, 1A7, 1A8, 1A9, 1A10, 2B4, 2B7, 2B10, 2B15, and 2B17) at 0.1 mg protein/mL, 5 mM UDPGA, 0.025 mg/mL alamethicin, and 25 μM DWP16001 or M1 in 50 mM Tris buffer (pH 7.4) were incubated at 37 °C for 30 min in triplicate. Reactions were stopped by adding 100 μL of ketoconazole (internal standard, 200 ng/mL) in acetonitrile, followed by vortex-mixing and centrifugation (15,000× g, 8 min, 4 °C). The supernatant (75 μL) was diluted with equal volume of 30% acetonitrile and aliquots (5 μL) were injected into an LC-MS/MS system.

[6] = test system: SGLT2; parameters: method as in PMID 32183468; settings: read-out: IC50 (SGLT2 inhibition); cited from earlier work
[7] = test system: monkey hepatocytes; assay: Metabolic stability in monkey hepatocytes; type: in vitro ADME
Procedure: as §1, §2

[8] = Metabolic stability in monkey hepatocytes; type: in vitro ADME; settings: pooled cryopreserved hepatocytes, monkey hepatocytes
Procedure: as §1, §2

[9] = biological target: T1, CYP3A4 (Homo sapiens, UniProt P08684); assay: CYP screening, recombinant CYP3A4; type: in vitro ADME
T1 construct: purchased Corning Life Sciences
T1 sequence (P08684 whole entry): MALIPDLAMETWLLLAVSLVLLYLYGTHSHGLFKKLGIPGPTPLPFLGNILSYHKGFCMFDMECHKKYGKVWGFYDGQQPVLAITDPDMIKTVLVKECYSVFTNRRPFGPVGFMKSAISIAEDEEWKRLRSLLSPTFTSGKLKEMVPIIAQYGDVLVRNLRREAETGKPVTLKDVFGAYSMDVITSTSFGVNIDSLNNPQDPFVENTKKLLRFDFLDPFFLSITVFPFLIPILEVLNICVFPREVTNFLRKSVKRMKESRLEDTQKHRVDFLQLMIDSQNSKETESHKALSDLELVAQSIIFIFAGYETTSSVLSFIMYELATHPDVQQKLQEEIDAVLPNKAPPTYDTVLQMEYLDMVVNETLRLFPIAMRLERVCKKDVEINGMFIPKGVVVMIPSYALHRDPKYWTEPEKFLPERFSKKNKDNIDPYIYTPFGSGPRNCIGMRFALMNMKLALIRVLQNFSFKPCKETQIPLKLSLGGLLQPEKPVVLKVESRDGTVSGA
Procedure: (§3) DWP16001, M1, or M2 was incubated with 11 human cDNA-expressed CYP enzymes (1A1, 1A2, 2A6, 2B6, 2C8, 2C9, 2C19, 2D6, 2E1, 3A4, and 3A5) to identify the CYP enzymes involved in the metabolism of DWP16001. Reaction mixtures of 95 µL containing DWP16001 (final concentration: 5 µM), M1 or M2 (final concentration: 10 µM), and CYPs (final amount: 10 pmol) were prepared in 0.1 M potassium phosphate buffer (pH 7.4). The reaction was started by adding 5 µL of NADPH-generating system; the mixtures were incubated for 30 min at 37 °C in triplicate. Reactions were stopped by the addition of 400 µL of ice-cold ketoconazole (internal standard, 200 ng/mL) in ice-cold acetonitrile. Samples were centrifuged at 15,000× g for 8 min at 4 °C. Seventy-five microliter aliquots of the supernatants were diluted with 75 µL of deionized water and analyzed using an LC–MS/MS system.

[10] = biological target: T1, CYP3A4; assay: Immunoinhibition of DWP16001 metabolism by anti-CYP3A4 antibody in human liver microsomes; type: in vitro ADME; settings: 5 μM DWP16001, pooled human liver microsomes
Procedure: DWP16001 (5 μM) in human liver microsomes was incubated with varying concentrations of antibody specific for human CYP3A4 (anti-CYP3A4 antibody). Prior to incubation, human liver microsomes were pretreated with anti-CYP3A4 antibody for 15 min on ice. Reactions were initiated by addition of an aliquot of NADPH-generating system; mixtures were incubated for 60 min at 37 °C. Reactions were terminated by addition of 100 µL of ice-cold ketoconazole (200 ng/mL) in acetonitrile; following centrifugation at 15,000× g for 10 min at 4 °C. Aliquots of supernatant (150 µL) was evaporated using a vacuum concentrator and re-dissolved in 100 µL of 20% methanol; 5 µL aliquots were injected into an LC-MS/MS system.

[11] = test system: dog hepatocytes; assay: Metabolic stability in dog hepatocytes; type: in vitro ADME
Procedure: as §1, §2

[12] = Metabolic stability in dog hepatocytes; type: in vitro ADME; settings: pooled cryopreserved hepatocytes, dog hepatocytes
Procedure: as §1, §2

[13] = biological target: T2, CYP2C19 (Homo sapiens, UniProt P33261); assay: CYP screening, recombinant CYP2C19; type: in vitro ADME
T2 construct: purchased Corning Life Sciences
T2 sequence (P33261 whole entry): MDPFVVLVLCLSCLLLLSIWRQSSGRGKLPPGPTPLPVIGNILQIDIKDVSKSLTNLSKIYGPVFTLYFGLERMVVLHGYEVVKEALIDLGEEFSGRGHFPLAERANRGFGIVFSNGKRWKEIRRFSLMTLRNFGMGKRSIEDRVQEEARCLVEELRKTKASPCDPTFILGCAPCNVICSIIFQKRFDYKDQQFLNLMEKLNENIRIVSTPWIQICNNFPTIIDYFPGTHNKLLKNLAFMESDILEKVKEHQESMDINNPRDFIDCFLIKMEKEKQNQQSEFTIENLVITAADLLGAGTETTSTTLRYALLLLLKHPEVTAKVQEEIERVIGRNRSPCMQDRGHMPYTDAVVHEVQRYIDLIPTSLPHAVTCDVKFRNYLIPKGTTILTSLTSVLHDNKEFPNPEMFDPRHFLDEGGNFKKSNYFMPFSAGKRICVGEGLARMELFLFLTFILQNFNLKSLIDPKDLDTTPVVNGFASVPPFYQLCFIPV
Procedure: as §3

Hepatic extraction ratio [1]: 0.15 | Clhep ([1]; well-stirred model): 8.3 mL/min/kg | CLint scaled at 1 μM [2]: 9.8 mL/min/kg | half-life at 1 μM ([2]; 37 °C, 0-240 min): 16.5 h | Hepatic extraction ratio [3]: 0.22 | Clhep ([3]; well-stirred model): 4.5 mL/min/kg | CLint scaled at 1 μM [4]: 5.7 mL/min/kg | half-life at 1 μM ([4]; 37 °C, 0-240 min): 14.4 h | Formation of U3 from DWP16001 [5]: not formed | Hepatic extraction ratio class ([7]; monkey): moderate (0.25–0.75) | Hepatic extraction ratio ([7]; monkey hepatocytes): 0.43 | Clhep ([7]; monkey hepatocytes, well-stirred model): 18.5 mL/min/kg | CLint scaled at 1 μM [8]: 32.3 mL/min/kg | half-life at 1 μM ([8]; 37 °C, 0-240 min): 2.75 h | Substrate of CYP3A4 [9]: substrate | Formation of M1 and M2 from DWP16001 with increasing anti-CYP3A4 antibody [10]: decreased | Hepatic extraction ratio class ([11]; dog): moderate (0.25–0.75) | Clhep ([11]; dog hepatocytes, well-stirred model): 17.9 mL/min/kg | CLint scaled at 1 μM [12]: 42.7 mL/min/kg | half-life at 1 μM ([12]; 37 °C, 0-240 min): 3.73 h | Substrate of CYP2C19 [13]: substrate
Structure (SMILES): OC[C@H]1O[C@@H](c2cc(Cc3ccc(C4CC4)cc3)c(Cl)c3c2CCO3)[C@H](O)[C@@H](O)[C@@H]1O [DWP16001, (2S,3R,4R,5S,6R)-2-(7-chloro-6-(4-cyclopropylbenzyl)-2,3-dihydrobenzofuran-4-yl)-6-(hydroxymethyl)tetrahydro-2H-pyran-3,4,5-triol]
Hepatic extraction ratio class [1]: low (Hepatic extraction ratio values of ≤ 0.25) | Hepatic extraction ratio class [3]: low (Hepatic extraction ratio values of ≤ 0.25) | IC50 [6]: 0.8 ± 0.3 nM

Reference: paper PMC7558535, “In Vitro Metabolism of DWP16001, a Novel Sodium-Glucose Cotransporter 2 Inhibitor, in Human and Animal Hepatocytes” (Pharmaceutics, 2020)
